Assay results: DBAASP
In brackets after ≈: the same amount, converted by molar mass.

Experiments:
Experiment in all cases: ≥ marks a high value that may be exact or a test limit, other limits are often not marked, values filed in µg/mL are converted to µM
Candida albicans = system: Candida albicans
Staphylococcus aureus = system: Staphylococcus aureus
Escherichia coli = system: Escherichia coli
Bacillus subtilis = system: Bacillus subtilis
[1] = system: Staphylococcus epidermidis ATCC 12228
[2] = system: Klebsiella pneumoniae ATCC 700603
[3] = system: Staphylococcus aureus ATCC 25923
[4] = system: Pseudomonas aeruginosa ATCC 27853
[5] = system: Escherichia coli ATCC 25922
[6] = system: Bacillus subtilis ATCC 6633
Klebsiella pneumoniae = system: Klebsiella pneumoniae
[7] = system: Candida albicans ATCC 10231
[8] = system: Staphylococcus aureus ATCC 29213

Compound CC[C@H](C)[C@H](NC(=O)CNC(=O)[C@H](CCCCN)NC(=O)[C@@H](NC(=O)[C@H](CC(C)C)NC(=O)[C@H](CO)NC(=O)CNC(=O)[C@H](CC(C)C)NC(=O)[C@H](CC(=O)O)NC(=O)[C@H](C)NC(=O)[C@H](CCCCN)NC(=O)[C@H](CC(C)C)NC(=O)[C@@H](NC(=O)[C@H](CCC(=O)O)NC(=O)[C@H](CCCCN)NC(=O)[C@H](Cc1ccccc1)NC(=O)CN)C(C)C)C(C)C)C(=O)N[C@@H](C)C(=O)N[C@@H](C)C(=O)N[C@@H](Cc1cnc[nH]1)C(=O)N[C@H](C(=O)N[C@@H](C)C(=O)N[C@@H](CC(N)=O)C(N)=O)C(C)C [GFKEVLKADLGSLVKGIAAHVAN] has an MIC (Candida albicans) of over 400 µM, an MIC (Staphylococcus aureus) of 214 µM (≈ 500 µg/mL) and an MIC (Escherichia coli) of 214 µM (≈ 500 µg/mL).
Work on CC(C)C[C@H](NC(=O)[C@H](C)NC(=O)[C@H](CC(C)C)NC(=O)[C@H](CC(N)=O)NC(=O)[C@H](CCCCN)NC(=O)[C@H](Cc1ccccc1)NC(=O)[C@@H](NC(=O)[C@H](CC(=O)O)NC(=O)[C@H](CC(C)C)NC(=O)[C@H](Cc1ccccc1)NC(=O)CN)[C@@H](C)O)C(=O)N[C@@H](CC(N)=O)C(=O)N[C@@H](C)C(=O)N[C@@H](C)C(=O)N[C@@H](CCCCN)C(=O)N[C@@H](CO)C(=O)N[C@@H](C)C(=O)NCC(=O)N[C@H](C(=O)N[C@@H](CO)C(=O)N[C@H](C(=O)N[C@@H](CC(C)C)C(=O)N[C@@H](CC(N)=O)C(=O)N[C@@H](CO)C(=O)N[C@@H](CC(C)C)C(=O)N[C@@H](CO)C(=O)N[C@H]1CSSC[C@@H](C(=O)O)NC(=O)[C@H]([C@@H](C)O)NC(=O)[C@H](CCCCN)NC(=O)[C@H](Cc2ccccc2)NC(=O)[C@H](CC(C)C)NC(=O)[C@H](CCCCN)NC1=O)C(C)C)C(C)C [GFLDTFKNLALNAAKSAGVSVLNSLSCKLFKTC] yielded an MIC (Candida albicans) of 1.18 µM (≈ 4.08 µg/mL), an MIC (Staphylococcus aureus) of 2.36 µM (≈ 8.16 µg/mL) and an MIC (Escherichia coli) of 4.71 µM (≈ 16.3 µg/mL). The MIC (Bacillus subtilis) was 2.36 µM (≈ 8.16 µg/mL).
Work on CC[C@H](C)[C@H](NC(=O)[C@H](CC(C)C)NC(=O)[C@H](Cc1cnc[nH]1)NC(=O)[C@@H](NC(=O)[C@@H](NC(=O)[C@H](C)NC(=O)CNC(=O)[C@H](CC(C)C)NC(=O)[C@H](C)NC(=O)[C@H](C)NC(=O)[C@H](CCCCN)NC(=O)CNC(=O)[C@@H](NC(=O)CNC(=O)[C@H](CCCCN)NC(=O)[C@H](CC(C)C)NC(=O)[C@@H](NC(=O)[C@H](CC(=O)O)NC(=O)[C@H](CC(C)C)NC(=O)[C@H](Cc1ccccc1)NC(=O)CN)C(C)C)C(C)C)C(C)C)[C@@H](C)O)C(=O)N[C@@H](CC(N)=O)C(=O)N[C@@H](CCC(N)=O)C(=O)NCC(=O)N[C@@H](CCC(=O)O)C(=O)N[C@@H](CCC(N)=O)C(N)=O [GFLDVLKGVGKAALGAVTHLINQGEQ] yielded an MIC (Candida albicans) of 55.1 µM (≈ 145 µg/mL), an MIC (Staphylococcus aureus) of 27.5 µM (≈ 72.5 µg/mL) and an MIC (Escherichia coli) of 27.5 µM (≈ 72.5 µg/mL).
With CC[C@H](C)[C@H](NC(=O)[C@H](CC(C)C)NC(=O)[C@H](Cc1cnc[nH]1)NC(=O)[C@@H](NC(=O)[C@@H](NC(=O)[C@H](C)NC(=O)CNC(=O)[C@H](CC(C)C)NC(=O)[C@H](C)NC(=O)[C@H](C)NC(=O)[C@H](CCCCN)NC(=O)CNC(=O)[C@@H](NC(=O)CNC(=O)[C@H](CCCCN)NC(=O)[C@@H](NC(=O)[C@@H](NC(=O)[C@H](CC(=O)O)NC(=O)[C@H](CC(C)C)NC(=O)[C@H](Cc1ccccc1)NC(=O)CN)C(C)C)C(C)C)C(C)C)C(C)C)[C@@H](C)O)C(=O)N[C@@H](CC(N)=O)C(=O)N[C@@H](CCC(N)=O)C(=O)NCC(=O)N[C@@H](CCC(=O)O)C(=O)N[C@@H](CCC(N)=O)C(N)=O [GFLDVVKGVGKAALGAVTHLINQGEQ] the MIC (Candida albicans) was 222 µM (≈ 582 µg/mL), the MIC (Staphylococcus aureus) was 111 µM (≈ 291 µg/mL) and the MIC (Escherichia coli) was 55.5 µM (≈ 145 µg/mL).
For CC[C@H](C)[C@H](NC(=O)[C@H](CC(C)C)NC(=O)[C@H](C)NC(=O)[C@@H]1CCCN1C(=O)[C@H](CC(C)C)NC(=O)CN)C(=O)N[C@@H](CO)C(=O)N[C@@H](CO)C(=O)N[C@H](C(=O)N[C@@H](CCCCN)C(=O)N[C@@H](CCCN=C(N)N)C(=O)N[C@@H](CCCCN)C(=O)N[C@@H](CCCN=C(N)N)C(=O)N[C@@H](CCC(N)=O)C(=O)N[C@@H](CCC(N)=O)C(N)=O)[C@@H](C)CC [GLPALISSIKRKRQQ], the MIC (Staphylococcus aureus) was 22.5 µM (≈ 38.2 µg/mL), the MIC (Escherichia coli) was over 180 µM and the MIC (Bacillus subtilis) was at least 45.1 µM.
Work on CC[C@H](C)[C@H](NC(=O)[C@H](CC(C)C)NC(=O)[C@H](C)NC(=O)[C@@H]1CCCN1C(=O)[C@H](CC(C)C)NC(=O)CN)C(=O)N[C@@H](CO)C(=O)N[C@@H](Cc1c[nH]c2ccccc12)C(=O)N[C@H](C(=O)N[C@@H](CCCCN)C(=O)N[C@@H](CCCN=C(N)N)C(=O)N[C@@H](CCCCN)C(=O)N[C@@H](CCCN=C(N)N)C(=O)NCC(=O)NCC(N)=O)[C@@H](C)CC [GLPALISWIKRKRGG] yielded an MIC (Staphylococcus aureus) of 1.57 µM (≈ 2.6 µg/mL), an MIC (Escherichia coli) of 47.4 µM (≈ 78.3 µg/mL) and an MIC (Bacillus subtilis) of 1.48 µM (≈ 2.45 µg/mL).
CC[C@H](C)[C@H](NC(=O)[C@H](CO)NC(=O)[C@H](C)NC(=O)[C@@H](NC(=O)[C@H](CCCCN)NC(=O)[C@H](CCCCN)NC(=O)[C@H](Cc1c[nH]c2ccccc12)NC(=O)[C@H](CC(N)=O)NC(=O)[C@@H](N)CCCCN)[C@@H](C)CC)C(=O)NCC(=O)N[C@@H](CCCCN)C(=O)N[C@@H](CCC(=O)O)C(=O)N[C@H](C(=O)N[C@@H](CC(C)C)C(=O)N[C@@H](CCCCN)C(=O)N[C@@H](C)C(=O)N[C@@H](CC(C)C)C(N)=O)C(C)C [KNWKKIASIGKEVLKAL] gave an MIC (Escherichia coli) of 12.5 µM (≈ 24.1 µg/mL) and an MIC (Bacillus subtilis) of at least 60 µM.
CC(=O)N[C@@H](CCCCN)C(=O)N[C@@H](Cc1ccc(O)cc1)C(=O)N[C@H](C(=O)NCC(=O)N[C@@H](CCCCN)C(=O)N[C@@H](CS)C(=O)N[C@H](C(=O)N[C@@H](CCCCN)C(=O)N[C@@H](CO)C(=O)N[C@@H](CCCCN)C(=O)N[C@@H](CC(N)=O)C(=O)N[C@@H](CCC(=O)O)C(=O)N[C@@H](CS)C(=O)N[C@@H](CCCCN)C(N)=O)[C@@H](C)O)[C@@H](C)O [KYTGKCTKSKNECK] showed an MIC (Candida albicans) of 10 µM (≈ 16.6 µg/mL).
CC(=O)N[C@@H](CC(C)C)C(=O)N[C@@H](Cc1ccccc1)C(=O)N[C@@H](CCCCN)C(=O)N[C@@H](CCCCN)C(=O)N[C@@H](CC(N)=O)C(=O)N[C@@H](CCCCN)C(=O)N[C@@H](CC(C)C)C(=O)N[C@@H](Cc1c[nH]c2ccccc12)C(=O)N[C@@H](Cc1ccccc1)C(=O)N[C@@H](CCCCN)C(=O)N[C@@H](CO)C(=O)N[C@@H](CCCCN)C(=O)N[C@@H](CCCCN)C(=O)N[C@@H](Cc1c[nH]c2ccccc12)C(=O)N[C@@H](CC(C)C)C(N)=O [LFKKNKLWFKSKKWL] was tested, and the MIC [1] was 25 µM (≈ 50.9 µg/mL), the MIC [2] was 50 µM (≈ 102 µg/mL) and the MIC [3] was 50 µM (≈ 102 µg/mL). It also gave an MIC [4] of 50 µM (≈ 102 µg/mL), an MIC [5] of 50 µM (≈ 102 µg/mL) and an MIC [6] of 6.4 µM (≈ 13 µg/mL).
Work on CC[C@H](C)[C@H](NC(=O)CNC(=O)[C@H](CC(N)=O)NC(=O)[C@@H](NC(=O)[C@H](C)NC(=O)[C@H](CC(N)=O)NC(=O)[C@H](CC(C)C)NC(=O)[C@H](C)NC(=O)[C@H](C)NC(=O)[C@H](CCCN=C(N)N)NC(=O)CNC(=O)[C@H](C)NC(=O)[C@H](C)NC(=O)[C@H](C)NC(=O)[C@H](C)NC(=O)[C@H](CCSC)NC(=O)[C@H](CC(=O)O)NC(=O)[C@H](CCCCN)NC(=O)[C@@H](NC(=O)[C@H](CO)NC(=O)[C@H](CO)NC(=O)[C@H](CCCN=C(N)N)NC(=O)[C@H](CC(C)C)NC(=O)[C@@H](N)CO)[C@@H](C)CC)C(C)C)C(=O)N[C@H](C(=O)N[C@@H](CC(N)=O)C(=O)N1CCC[C@H]1C(N)=O)C(C)C [SLRSSIKDMAAAAGRAALNAVNGIVNP] yielded an MIC (Candida albicans) of 384 µM (≈ 1020 µg/mL), an MIC [3] of over 192 µM and an MIC (Klebsiella pneumoniae) of over 189 µM. It also gave an MIC [5] of 96.1 µM (≈ 256 µg/mL).
In the case of CC[C@H](C)[C@H](NC(=O)CNC(=O)[C@H](CC(C)C)NC(=O)[C@@H](NC(=O)[C@H](Cc1ccc(O)cc1)NC(=O)[C@@H](NC(=O)[C@H](CO)NC(=O)[C@@H](NC(=O)[C@@H]1CCCN1C(=O)[C@@H](NC(=O)[C@@H](N)CO)C(C)C)[C@@H](C)O)C(C)C)[C@@H](C)O)C(=O)N[C@@H](CCCCN)C(=O)N[C@H](C(=O)N[C@@H](CC(C)C)C(=O)N[C@@H](Cc1c[nH]c2ccccc12)C(=O)N[C@@H](CO)C(=O)N[C@@H](C)C(=O)N[C@@H](Cc1ccc(O)cc1)C(=O)N[C@@H](CCCCN)C(=O)N[C@@H](Cc1cnc[nH]1)C(=O)N[C@@H](CCCN=C(N)N)C(=O)N[C@@H](CCCCN)C(=O)N[C@H](C(=O)N[C@H](C(=O)N[C@@H](CCC(=O)O)C(=O)N[C@@H](CCCCN)C(=O)N[C@@H](CO)C(=O)N[C@@H](Cc1ccccc1)C(=O)N[C@@H](CC(N)=O)C(=O)N[C@@H](CCCCN)C(=O)NCC(=O)N[C@@H](Cc1ccccc1)C(=O)N[C@@H](Cc1ccc(O)cc1)C(=O)N[C@@H](Cc1cnc[nH]1)C(=O)O)[C@@H](C)CC)[C@@H](C)O)[C@@H](C)CC [SVPTSVYTLGIKILWSAYKHRKTIEKSFNKGFYH], the MIC [1] is reported as 50 µM (≈ 200 µg/mL).
Compound CC[C@H](C)[C@H](NC(=O)[C@H](CC(C)C)NC(=O)[C@H](CC(C)C)NC(=O)CNC(=O)[C@H](CCCCN)NC(=O)[C@H](CC(C)C)NC(=O)[C@H](CCCCN)NC(=O)[C@@H]1CCCN1C(=O)[C@H](CC(C)C)NC(=O)[C@H](CC(C)C)NC(=O)[C@H](CC(C)C)NC(=O)[C@H](CCCCN)NC(=O)[C@H](CC(C)C)NC(=O)[C@H](CC(C)C)NC(=O)[C@H](CCCCN)NC(=O)[C@@H](N)Cc1ccc(O)cc1)C(=O)N[C@@H](CCCCN)C(=O)N[C@@H](CC(C)C)C(N)=O [YKLLKLLLPKLKGLLIKL] has an MIC [7] of 77.6 µM (≈ 164 µg/mL), an MIC [8] of 2.32 µM (≈ 4.9 µg/mL) and an MIC [4] of 9.39 µM (≈ 19.8 µg/mL).
